This note sets out measurements from patent publication US20260092071A1, “COMPOUNDS AND COMPOSITIONS AS SMARCA2/4 DEGRADERS AND USES THEREOF” (REGENTS OF THE UNIVERSITY OF MICHIGAN, priority 2022, published 2026).

For one test, the target named is SMARCA4 (Homo sapiens, UniProt P51532). The test is described as follows: HiBiT assay for protein degradation, Hela SMARCA4-HiBiT cells (A series). The class given is cell-based. On the set-up: fuse HiBiT to the carboxy terminus of SMARCA2 (Promega CS302365) or SMARCA4 (Promega CS3023225); host or cells: HeLa (CRISPR/Cas9 HiBiT knock-in). The conditions noted are these: for DC50: read-out: SMARC A4 Hela HiBit DC50. The gist of the method: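 HeLa cells engineered by CRISPR/Cas9 to carry a HiBiT tag fused to the C-terminus of SMARCA4 (Promega CS3023225) were grown in DMEM supplemented with FBS and penicillin-streptomycin. After compound exposure, remaining SMARCA4 protein was quantified using the Nano-Glo® HiBiT Lytic Detection Assay (Promega N3050), and curves were fitted in GraphPad Prism.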

The target of a further test is SMARCA2 (Homo sapiens, UniProt P51531). The test is described as follows: HiBiT assay for protein degradation, Hela SMARCA2-HiBiT cells (A series).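 As to SMARC A2 Hela HiBit Dmax (%): 24 h compound treatment.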 Type of test: cell-based. On the set-up: Hela cells were genetically modified via CRISPR/Cas9 to fuse HiBiT to the carboxy terminus of SMARCA2; host or cells: HeLa (CRISPR/Cas9 HiBiT knock-in). The conditions noted are these: for DC50: read-out: SMARC A2 Hela HiBit DC50; for Dmax: read-out: SMARC A2 Hela HiBit Dmax (%). An outline of the steps: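 HeLa cells engineered by CRISPR/Cas9 to carry a HiBiT tag fused to the C-terminus of SMARCA2 (Promega CS302365) were grown in DMEM supplemented with FBS and penicillin-streptomycin. After treatment, remaining SMARCA2 protein was quantified with the Nano-Glo® HiBiT Lytic Detection Assay (Promega N3050), and curves were fitted in GraphPad Prism.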

[1] abbreviates: Hela SMARCA4-HiBiT cells, 24 hours treatment.
Setting [2] is: Hela SMARCA4-HiBiT cells, 24 hours treatment, read-out: SMARC A4 Hela HiBit Dmax.
Setting [3] is: Hela SMARCA2-HiBiT cells, 24 hours treatment.
Setting [4] is: Hela SMARCA4-HiBiT cells, 24 hours treatment, read-out: SMARC A4 Hela HiBit Dmax(%).

Read-outs that look alike come from different tables or passages of the source.

Chain of SMARCA2 (P51531 whole entry, the tested form may be a part): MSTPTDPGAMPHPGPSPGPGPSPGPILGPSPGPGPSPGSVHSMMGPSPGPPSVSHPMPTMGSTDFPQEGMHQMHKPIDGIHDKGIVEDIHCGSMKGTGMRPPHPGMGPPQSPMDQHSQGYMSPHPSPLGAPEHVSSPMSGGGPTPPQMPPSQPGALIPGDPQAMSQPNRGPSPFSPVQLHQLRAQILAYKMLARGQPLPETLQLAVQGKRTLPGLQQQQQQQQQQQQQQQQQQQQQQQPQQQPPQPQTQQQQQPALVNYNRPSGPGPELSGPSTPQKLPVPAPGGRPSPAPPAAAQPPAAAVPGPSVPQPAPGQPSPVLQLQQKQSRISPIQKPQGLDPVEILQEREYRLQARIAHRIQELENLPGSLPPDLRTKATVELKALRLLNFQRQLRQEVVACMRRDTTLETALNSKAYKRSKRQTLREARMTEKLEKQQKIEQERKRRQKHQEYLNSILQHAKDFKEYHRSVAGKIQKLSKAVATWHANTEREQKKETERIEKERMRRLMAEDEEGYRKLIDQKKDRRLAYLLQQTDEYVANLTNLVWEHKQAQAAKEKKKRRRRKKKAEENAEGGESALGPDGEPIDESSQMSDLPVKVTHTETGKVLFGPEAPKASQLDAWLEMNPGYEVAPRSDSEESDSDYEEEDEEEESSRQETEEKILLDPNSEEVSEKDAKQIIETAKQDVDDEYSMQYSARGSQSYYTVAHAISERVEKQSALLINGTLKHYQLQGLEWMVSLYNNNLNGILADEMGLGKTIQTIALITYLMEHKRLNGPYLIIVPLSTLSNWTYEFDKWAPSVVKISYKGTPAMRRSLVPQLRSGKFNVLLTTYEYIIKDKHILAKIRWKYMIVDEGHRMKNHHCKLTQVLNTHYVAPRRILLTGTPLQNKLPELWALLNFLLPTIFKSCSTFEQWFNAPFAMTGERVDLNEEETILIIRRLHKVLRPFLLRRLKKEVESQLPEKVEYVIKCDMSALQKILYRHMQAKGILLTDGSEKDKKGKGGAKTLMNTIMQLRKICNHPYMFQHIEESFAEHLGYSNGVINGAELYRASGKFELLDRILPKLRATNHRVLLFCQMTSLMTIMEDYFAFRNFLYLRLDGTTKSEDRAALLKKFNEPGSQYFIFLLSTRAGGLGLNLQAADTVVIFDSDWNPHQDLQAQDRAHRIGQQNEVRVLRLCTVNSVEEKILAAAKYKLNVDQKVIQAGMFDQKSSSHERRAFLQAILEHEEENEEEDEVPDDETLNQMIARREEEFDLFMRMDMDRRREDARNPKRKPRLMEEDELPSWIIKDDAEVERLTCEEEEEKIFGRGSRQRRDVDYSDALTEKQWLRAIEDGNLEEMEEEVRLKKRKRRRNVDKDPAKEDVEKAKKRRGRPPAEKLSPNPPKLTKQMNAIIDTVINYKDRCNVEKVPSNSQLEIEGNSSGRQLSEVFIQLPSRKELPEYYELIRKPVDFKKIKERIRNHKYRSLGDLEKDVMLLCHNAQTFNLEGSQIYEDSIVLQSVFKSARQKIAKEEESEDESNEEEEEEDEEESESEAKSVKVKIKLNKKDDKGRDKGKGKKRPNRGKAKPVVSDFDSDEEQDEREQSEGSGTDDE
Chain of SMARCA4 (P51532 whole entry, the tested form may be a part): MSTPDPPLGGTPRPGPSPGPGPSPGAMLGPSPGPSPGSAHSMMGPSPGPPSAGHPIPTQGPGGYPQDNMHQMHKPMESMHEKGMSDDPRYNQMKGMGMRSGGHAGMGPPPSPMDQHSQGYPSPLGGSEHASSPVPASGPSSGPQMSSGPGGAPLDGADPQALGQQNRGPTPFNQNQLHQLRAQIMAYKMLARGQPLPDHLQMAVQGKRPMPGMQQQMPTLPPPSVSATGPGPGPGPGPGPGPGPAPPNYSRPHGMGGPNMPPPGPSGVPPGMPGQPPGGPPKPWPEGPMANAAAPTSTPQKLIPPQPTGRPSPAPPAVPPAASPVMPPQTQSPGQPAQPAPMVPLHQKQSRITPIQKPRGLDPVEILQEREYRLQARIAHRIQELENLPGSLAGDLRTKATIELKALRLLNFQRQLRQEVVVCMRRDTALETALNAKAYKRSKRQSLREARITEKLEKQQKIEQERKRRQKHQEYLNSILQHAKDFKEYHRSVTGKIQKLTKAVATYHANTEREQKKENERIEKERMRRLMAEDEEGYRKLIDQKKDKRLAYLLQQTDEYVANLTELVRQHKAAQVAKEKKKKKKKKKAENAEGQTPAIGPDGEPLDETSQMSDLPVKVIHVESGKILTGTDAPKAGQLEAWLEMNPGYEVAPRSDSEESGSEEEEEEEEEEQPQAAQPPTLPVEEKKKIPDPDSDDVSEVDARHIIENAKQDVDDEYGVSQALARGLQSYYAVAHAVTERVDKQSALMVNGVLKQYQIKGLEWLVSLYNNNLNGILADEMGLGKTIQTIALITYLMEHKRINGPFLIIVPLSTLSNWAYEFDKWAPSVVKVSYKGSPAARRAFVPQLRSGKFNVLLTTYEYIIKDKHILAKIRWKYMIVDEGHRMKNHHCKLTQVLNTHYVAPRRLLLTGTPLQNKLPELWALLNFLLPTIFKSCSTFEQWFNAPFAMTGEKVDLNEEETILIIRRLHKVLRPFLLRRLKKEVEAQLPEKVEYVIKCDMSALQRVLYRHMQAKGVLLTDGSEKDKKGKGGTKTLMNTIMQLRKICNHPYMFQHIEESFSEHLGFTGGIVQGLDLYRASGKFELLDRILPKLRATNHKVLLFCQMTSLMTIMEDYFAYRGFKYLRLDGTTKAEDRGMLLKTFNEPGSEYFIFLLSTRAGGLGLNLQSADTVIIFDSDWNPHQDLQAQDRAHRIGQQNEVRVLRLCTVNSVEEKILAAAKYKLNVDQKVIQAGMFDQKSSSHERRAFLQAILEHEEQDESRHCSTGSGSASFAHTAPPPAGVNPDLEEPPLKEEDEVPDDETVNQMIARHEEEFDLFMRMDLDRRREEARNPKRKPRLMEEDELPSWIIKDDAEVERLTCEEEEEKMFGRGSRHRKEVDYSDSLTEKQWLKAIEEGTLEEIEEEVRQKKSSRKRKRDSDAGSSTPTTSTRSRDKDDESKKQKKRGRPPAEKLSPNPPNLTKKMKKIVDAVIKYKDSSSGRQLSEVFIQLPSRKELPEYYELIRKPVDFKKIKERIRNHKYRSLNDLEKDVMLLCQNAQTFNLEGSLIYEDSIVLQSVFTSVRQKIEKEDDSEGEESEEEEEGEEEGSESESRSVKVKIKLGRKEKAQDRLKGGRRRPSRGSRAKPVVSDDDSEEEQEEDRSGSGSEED

Broadly, the DC50 is the concentration giving 50% degradation. The Dmax is the greatest extent of degradation seen. With `Cc1ncsc1-c1ccc([C@H](C)NC(=O)[C@@H]2C[C@@H](O)CN2C(=O)[C@H](C2CCN(C(=O)CN3CCC(c4ccc5c(c4)-n4c(nc(=O)c6c(Cl)cccc64)C54CCCCC4)CC3)CC2)n2cc(C3CC3)nn2)cc1` [Compound A105, (2S,4R)-1-((S)-2-(1-(2-(4-(4′-chloro-5′-oxo-5′H-spiro[cyclohexane-1,7′-indolo[1,2-a]quinazolin]-10′-yl)piperidin-1-yl)acetyl)piperidin-4-yl)-2-(4-cyclopropyl-1H-1,2,3-triazol-1-yl)acetyl)-4-hydroxy-N—((S)-1-(4-(4-methylthiazol-5-yl)phenyl)ethyl)pyrrolidine-2-carboxamide], the DC50 on SMARCA4 (setting [1]) was over 1000 nM; at SMARCA2 (setting [3]) it was 100 to 1000 nM. Besides, the greatest degradation seen (Dmax) at SMARCA4 (setting [2]) is under 50%; on SMARCA2 (setting [3]), 50 to 69%.
As to `Cc1ncsc1-c1ccc([C@H](C)NC(=O)[C@@H]2C[C@@H](O)CN2C(=O)[C@@H](n2cc(CCCCN3CCC(c4ccc5c(c4)C4(CCCCC4)c4nc(=O)c6c(Br)cccc6n4-5)CC3)nn2)C(C)(C)C)cc1` [Compound A56, (2S,4R)-1-((S)-2-(4-(4-(4-(4′-bromo-5′-oxo-5′H-spiro[cyclohexane-1,7′-indolo[1,2-a]quinazolin]-9′-yl)piperidin-1-yl)butyl)-1H-1,2,3-triazol-1-yl)-3,3-dimethylbutanoyl)-4-hydroxy-N—((S)-1-(4-(4-methylthiazol-5-yl)phenyl)ethyl)pyrrolidine-2-carboxamide], the DC50 on SMARCA4 (setting [1]) and on SMARCA2 (setting [3]) was under 100 nM in each case. For the same compound, the Dmax on SMARCA4 (setting [4]) and on SMARCA2 (setting [3]) was over 90% throughout.
Regarding `Cc1ncsc1-c1ccc([C@H](CO)NC(=O)[C@@H]2C[C@@H](O)CN2C(=O)[C@H](C2CCCCC2)n2cc([C@H]3CC[C@H](CN4CCC(c5ccc6c(c5)-n5c(nc(=O)c7c(Br)cccc75)C65CCCCC5)CC4)CC3)nn2)cc1` [Compound A127], the DC50 on SMARCA4 (setting [1]) and on SMARCA2 (setting [3]) was under 10 nM in each case. Besides, the Dmax at SMARCA4 (setting [2]) was 70 to 90%; on SMARCA2 (setting [3]) it was over 90%.
As for `Cc1ncsc1-c1ccc([C@H](C)NC(=O)[C@@H]2C[C@@H](O)CN2C(=O)[C@@H](NC(=O)[C@H]2CC[C@H](CN3CCC(N4CCC(c5ccc6c(c5)C5(CCCCC5)c5nc(=O)c7c(Cl)cccc7n5-6)CC4)CC3)CC2)C(C)(C)C)cc1` [Compound A13, (2S,4R)-1-((S)-2-((1r,4S)-4-((4-(4′-chloro-5′-oxo-5′H-spiro[cyclohexane-1,7′-indolo[1,2-a]quinazolin]-9′-yl)-[1,4′-bipiperidin]-1′-yl)methyl)cyclohexane-1-carboxamido)-3,3-dimethylbutanoyl)-4-hydroxy-N—((S)-1-(4-(4-methylthiazol-5-yl)phenyl)ethyl)pyrrolidine-2-carboxamide], the “SMARC A4 Hela HiBit DC50(nM)” value on SMARCA4 (setting [1]) is listed as “No fit”. Further, the Dmax at SMARCA4 (setting [4]) is under 50%. In addition, at SMARCA2 (setting [3]), the DC50 was under 100 nM and the Dmax was in the range of 70 to 90%.
Consider `Cc1ncsc1-c1ccc([C@H](CCCCCN2CCC(c3ccc4c(c3)C3(CCCCC3)c3nc(=O)c5c(Br)cccc5n3-4)CC2)NC(=O)[C@@H]2C[C@@H](O)CN2C(=O)[C@@H](NC(=O)C2(N(C)C)CC2)C(C)(C)C)cc1` [Compound A17, (2S,4R)—N—((S)-6-(4-(4′-bromo-5′-oxo-5′H-spiro[cyclohexane-1,7′-indolo[1,2-a]quinazolin]-9′-yl)piperidin-1-yl)-1-(4-(4-methylthiazol-5-yl)phenyl)hexyl)-1-((S)-2-(1-(dimethylamino)cyclopropane-1-carboxamido)-3,3-dimethylbutanoyl)-4-hydroxypyrrolidine-2-carboxamide], for which the DC50 at SMARCA4 (setting [1]) and at SMARCA2 (setting [3]) was under 100 nM throughout. In addition, the results for the Dmax at SMARCA4 (setting [4]) and on SMARCA2 (setting [3]) were over 90% and 70 to 90%, respectively.
For the compound `Cc1ncsc1-c1ccc([C@H](CN2CCOCC2)NC(=O)[C@@H]2C[C@@H](O)CN2C(=O)[C@@H](n2cc([C@H]3CC[C@H](CN4CCC(c5ccc6c(c5)-n5c(nc(=O)c7c(Cl)cccc75)C6(C)C)CC4)CC3)nn2)C(C)(C)C)cc1` [Compound A90], the values for the DC50 at SMARCA4 (setting [1]) and at SMARCA2 (setting [3]) were over 1000 nM and under 10 nM, respectively. The Dmax on SMARCA4 (setting [2]) is under 50%; at SMARCA2 (setting [3]), over 90%.
`Cc1ncsc1-c1ccc([C@H](CN2CCOCC2)NC(=O)[C@@H]2C[C@@H](O)CN2C(=O)[C@@H](NC(=O)C23CCC(CN4CCC(c5ccc6c(c5)C5(CCCCC5)c5nc(=O)c7c(Br)cccc7n5-6)CC4)(CC2)C3)C(C)(C)C)cc1` [Compound A22, (2S,4R)-1-((S)-2-(4-((4-(4′-bromo-5′-oxo-5′H-spiro[cyclohexane-1,7′-indolo[1,2-a]quinazolin]-9′-yl)piperidin-1-yl)methyl)bicyclo[2.2.1]heptane-1-carboxamido)-3,3-dimethylbutanoyl)-4-hydroxy-N—((R)-1-(4-(4-methylthiazol-5-yl)phenyl)-2-morpholinoethyl)pyrrolidine-2-carboramide]: the “SMARC A4 Hela HiBit Dmax(%)” value at SMARCA4 (setting [1]) is “A (A (>90% degradation))”. The 50% degradation concentration (DC50) on SMARCA4 and on SMARCA2 was under 100 nM throughout. Also, the “SMARC A2 Hela HiBit Dmax (%)” value at SMARCA2 (setting [3]) was “A (A (>90% degradation))”.
`Cc1ncsc1-c1ccc([C@H](C)NC(=O)[C@@H]2C[C@@H](O)CN2C(=O)[C@@H](NC(=O)C2CC(CN3CCC(c4ccc5c(c4)C4(CCCCC4)c4nc(=O)c6c(Br)cccc6n4-5)CC3)C2)C(C)(C)C)cc1` (stereo partly drawn) [Compound A20, (2S,4R)-1-((S)-2-(3-((4-(4′-bromo-5′-oxo-5′H-spiro[cyclohexane-1,7′-indolo[1,2-a]quinazolin]-9′-yl)piperidin-1-yl)methyl)cyclobutane-1-carboxamido)-3,3-dimethylbutanoyl)-4-hydroxy-N—((S)-1-(4-(4-methylthiazol-5-yl)phenyl)ethyl)pyrrolidine-2-carboxamide]: the values for the Dmax at SMARCA4 (setting [4]) and on SMARCA2 (HeLa) were under 50% and over 90%, respectively. Besides, the DC50 at SMARCA4 was over 1000 nM; at SMARCA2, under 100 nM.
On to `Cc1ncsc1-c1ccc([C@H](CCCCCN2CCC(c3ccc4c(c3)C3(CCCCC3)c3nc(=O)c5c(Cl)cccc5n3-4)CC2)NC(=O)[C@@H]2C[C@@H](O)CN2C(=O)[C@@H](NC(=O)C2(F)CC2)C(C)(C)C)cc1` [Compound A3, (2S,4R)—N—((S)-6-(4-(4′-chloro-5′-oxo-5′H-spiro[cyclohexane-1,7′-indolo[1,2-a]quinazolin]-9′-yl)piperidin-1-yl)-1-(4-(4-methylthiazol-5-yl)phenyl)hexyl)-1-((S)-2-(1-fluorocyclopropane-1-carboxamido)-3,3-dimethylbutanoyl)-4-hydroxypyrrolidine-2-carboxamide], for which the Dmax is over 90% at SMARCA4 (HeLa, read-out: SMARC A4 Hela HiBit Dmax(%)) and over 90% on SMARCA2 (HeLa). Moreover, the DC50 on SMARCA4 (setting [1]) and on SMARCA2 (setting [3]) was under 100 nM each time.
With `COCCOCCOCCOCCOC[C@H](NC(=O)[C@@H]1C[C@@H](O)CN1C(=O)[C@@H](n1cc([C@H]2CC[C@H](CN3CCC(c4ccc5c(c4)-n4c(nc(=O)c6c(Cl)cccc64)C54CCCCC4)CC3)CC2)nn1)C(C)(C)C)c1ccc(-c2scnc2C)cc1` [Compound A149, (2S,4R)-1-((S)-2-(4-((1r,4S)-4-((4-(4′-chloro-5′-oxo-5′H-spiro[cyclohexane-1,7′-indolo[1,2-a]quinazolin]-10′-yl)piperidin-1-yl)methyl)cyclohexyl)-1H-1,2,3-triazol-1-yl)-3,3-dimethylbutanoyl)-4-hydroxy-N—((R)-16-(4-(4-methylthiazol-5-yl)phenyl)-2,5,8,11,14-pentaoxahexadecan-16-yl)pyrrolidine-2-carboxamide], the DC50 on SMARCA4 (setting [1]) was over 1000 nM; at SMARCA2 (setting [3]), under 10 nM. Besides, the Dmax at SMARCA4 (setting [2]) is 50 to 69%; on SMARCA2 (setting [3]), over 90%.
In the case of `Cc1ncsc1-c1ccc([C@H](C)NC(=O)[C@@H]2C[C@@H](O)CN2C(=O)[C@H](C2CCCCC2)n2cc([C@H]3CC[C@H](CN4CCC(c5ccc6c(c5)-n5c(nc(=O)c7c(Cl)cccc75)C6(C)C)CC4)CC3)nn2)cc1` [Compound A124, (2S,4R)-1-((S)-2-(4-((1r,4S)-4-((4-(4-chloro-7,7-dimethyl-5-oxo-5,7-dihydroindolo[1,2-a]quinazolin-10-yl)piperidin-1-yl)methyl)cyclohexyl)-1H-1,2,3-triazol-1-yl)-2-cyclohexylacetyl)-4-hydroxy-N—((S)-1-(4-(4-methylthiazol-5-yl)phenyl)ethyl)pyrrolidine-2-carboxamide], at SMARCA4 (setting [1]), the “SMARC A4 Hela HiBit DC50(nM)” value was “No fit”. The Dmax on SMARCA4 (setting [2]) is under 50%. In addition, at SMARCA2 (setting [3]), the DC50 was under 10 nM and the Dmax is over 90%.
